Data published in patent publication US6737383B1, “Herbicidal oxadiazolidines” (priority 1999, dated 2004).

Tests used:
rice = experiment: Test B flood test rice; type: in vivo, Oryza sativa
How it was run: (§1)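 Plants were grown to the 2-leaf stage before treatment with test chemical, then held in a greenhouse for twelve to sixteen days. Injury was visually rated against untreated controls on a 0–10 scale, where 0 is no effect and 10 is complete control.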

wild oat = experiment: Test B pre/postemergence wild oat; type: in vivo, Avena fatua
How it was run: (§2)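 Test chemicals in a non-phytotoxic solvent mixture with surfactant were sprayed preemergence onto planted seeds and postemergence onto plants 2 to 18 cm tall (1- to 4-leaf stage). After twelve to sixteen days in a greenhouse, injury was visually rated against untreated controls from 0 (no effect) to 10 (complete control).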

duck salad = experiment: Test B flood test duck salad; type: in vivo, Heteranthera limosa
How it was run: as §1

crabgrass = experiment: Test B pre/postemergence crabgrass; type: in vivo, Digitaria sanguinalis
How it was run: as §2

cocklebur = experiment: Test B pre/postemergence cocklebur; type: in vivo, Xanthium strumarium
How it was run: as §2

velvetleaf = experiment: Test B pre/postemergence velvetleaf; type: in vivo, Abutilon theophrasti
How it was run: as §2

blackgrass = experiment: Test B pre/postemergence blackgrass; type: in vivo, Alopecurus myosuroides
How it was run: as §2

wheat = experiment: Test B pre/postemergence wheat; type: in vivo, Triticum aestivum
How it was run: as §2

purple nutsedge = experiment: Test B pre/postemergence purple nutsedge; type: in vivo, Cyperus rotundus
How it was run: as §2

smallflower flatsedge = experiment: Test B flood test smallflower flatsedge; type: in vivo, Cyperus difformis
How it was run: as §1

bamyardgrass = experiment: Test B flood test barnyardgrass; type: in vivo, Echinochloa crus-galli
How it was run: as §1

sugar beet = experiment: Test B pre/postemergence sugar beet; type: in vivo, Beta vulgaris
How it was run: as §2

corn = experiment: Test B pre/postemergence corn; type: in vivo, Zea mays
How it was run: as §2

soybean = experiment: Test B pre/postemergence soybean; type: in vivo, Glycine max
How it was run: as §2

bedstraw = experiment: Test B pre/postemergence bedstraw; type: in vivo, Galium aparine
How it was run: as §2

surinam grass = experiment: Test B pre/postemergence surinam grass; type: in vivo, Brachiaria decumbens
How it was run: as §2

[1] = Rate 62 g/ha, headed Pre-emergence (flood test species), scale 0 to 10 (0 no effect, 10 complete control)
[2] = Rate 125 g/ha, Pre-emergence, flood test species, scale 0 to 10 where 0 is no effect and 10 is complete control
[3] = Rate 250 g/ha, Pre-emergence, flood-test species, scale 0 to 10, 0 is no effect, 10 is complete control
[4] = Rate 500 g/ha, Pre-emergence, flood test species, scale 0 to 10 (0 no effect, 10 complete control)
[5] = Preemergence, Rate 62 g/ha, scale of 0 to 10 where 0 is no effect and 10 is complete control
[6] = Preemergence, Rate 250 g/ha, scale of 0 to 10 where 0 is no effect and 10 is complete control
[7] = Preemergence, Rate 500 g/ha, scale of 0 to 10 where 0 is no effect and 10 is complete control
[8] = Rate 62 g/ha, Postemergence, scale of 0 to 10 where 0 is no effect and 10 is complete control
[9] = Rate 125 g/ha, Postemergence, scale 0 to 10
[10] = Rate 125 g/ha, Preemergence, scale of 0 to 10 where 0 is no effect and 10 is complete control
[11] = Rate 500 g/ha, Postemergence, scale 0 to 10, 0 no effect, 10 complete control

With `COc1cc(C)cc(C)c1-n1c(=O)on(C(=O)N(c2ccc(F)cc2)C(C)C)c1=O` [Compound 222] the “Rice plant response rating” value (rice; [1]) was 0, the “Rice plant response rating” value (rice; [2]) was 0 and the “Rice plant response rating” value (rice; [3]) was 0. The “Rice plant response rating” value (rice; [4]) was 0, the “Wild oats plant response rating” value (wild oat; [5]) was 0 and the “Wild oats plant response rating” value (wild oat; [6]) was 0. For the same compound, the “Plant response rating, Wild oats” value (wild oat; [7]) was 1, the “Wild oats plant response rating” value (wild oat; [8]) was 0 and the “Wild oats plant response rating” value (wild oat; [9]) was 0. The “Wild oats plant response rating” value (wild oat; [10]) was 0, the “Plant response rating (0 to 10; 0 is no effect, 10 is complete control), Wild oats” value (wild oat; Rate 250 g/ha, Postemergence) was 0 and the “Wild oats plant response rating” value (wild oat; [11]) was 0. The “Ducksalad plant response rating” value (duck salad; [1]) was 0, the “Ducksalad plant response rating” value (duck salad; [2]) was 0 and the “Ducksalad plant response rating” value (duck salad; [3]) was 0. For the same compound, the “Ducksalad plant response rating” value (duck salad; [4]) was 0, the “Crabgrass plant response rating” value (crabgrass; [5]) was 0 and the “Crabgrass plant response rating” value (crabgrass; [6]) was 8. The “Plant response rating, Crabgrass” value (crabgrass; [7]) was 9, the “Crabgrass plant response rating” value (crabgrass; [8]) was 0 and the “Crabgrass plant response rating” value (crabgrass; [9]) was 0. The “Crabgrass plant response rating” value (crabgrass; [10]) was 6, the “Plant response rating (0 to 10; 0 is no effect, 10 is complete control), Crabgrass” value (crabgrass; Rate 250 g/ha, Postemergence) was 0 and the “Crabgrass plant response rating” value (crabgrass; [11]) was 2. The “Cocklebur plant response rating” value (cocklebur; [5]) was 0, the “Cocklebur plant response rating” value (cocklebur; [6]) was 0 and the “Cocklebur plant response rating” value (cocklebur; [8]) was 0. The “Cocklebur plant response rating” value (cocklebur; [9]) was 0, the “Cocklebur plant response rating” value (cocklebur; [10]) was 0 and the “Plant response rating (0 to 10; 0 is no effect, 10 is complete control), Cocklebur” value (cocklebur; Rate 250 g/ha, Postemergence) was 0. For the same compound, the “Cocklebur plant response rating” value (cocklebur; [11]) was 0, the “Velvetleaf plant response rating” value (velvetleaf; [5]) was 0 and the “Velvetleaf plant response rating” value (velvetleaf; [6]) was 0. The “Plant response rating, Velvetleaf” value (velvetleaf; [7]) was 3, the “Velvetleaf plant response rating” value (velvetleaf; [8]) was 0 and the “Velvetleaf plant response rating” value (velvetleaf; [9]) was 0. The “Velvetleaf plant response rating” value (velvetleaf; [10]) was 0, the “Plant response rating (0 to 10; 0 is no effect, 10 is complete control), Velvetleaf” value (velvetleaf; Rate 250 g/ha, Postemergence) was 2 and the “Velvetleaf plant response rating” value (velvetleaf; [11]) was 3. The “Blackgrass plant response rating” value (blackgrass; [5]) was 0, the “Blackgrass plant response rating” value (blackgrass; [6]) was 0 and the “Plant response rating, Blackgrass” value (blackgrass; [7]) was 0. The “Blackgrass plant response rating” value (blackgrass; [8]) was 0, the “Blackgrass plant response rating” value (blackgrass; [9]) was 0 and the “Blackgrass plant response rating” value (blackgrass; [10]) was 0. The “Plant response rating (0 to 10; 0 is no effect, 10 is complete control), Blackgrass” value (blackgrass; Rate 250 g/ha, Postemergence) was 3, the “Blackgrass plant response rating” value (blackgrass; [11]) was 4 and the “Wheat plant response rating” value (wheat; [5]) was 0. For the same compound, the “Wheat plant response rating” value (wheat; [6]) was 0, the “Plant response rating, Wheat” value (wheat; [7]) was 0 and the “Wheat plant response rating” value (wheat; [8]) was 0. The “Wheat plant response rating” value (wheat; [9]) was 0, the “Wheat plant response rating” value (wheat; [10]) was 0 and the “Plant response rating (0 to 10; 0 is no effect, 10 is complete control), Wheat” value (wheat; Rate 250 g/ha, Postemergence) was 0. The “Wheat plant response rating” value (wheat; [11]) was 0, the “Nutsedge plant response rating” value (purple nutsedge; [6]) was 0 and the “Nutsedge plant response rating” value (purple nutsedge; [8]) was 0. The “Nutsedge plant response rating” value (purple nutsedge; [9]) was 0, the “Nutsedge plant response rating” value (purple nutsedge; [10]) was 0 and the “Plant response rating (0 to 10; 0 is no effect, 10 is complete control), Nutsedge” value (purple nutsedge; Rate 250 g/ha, Postemergence) was 0. For the same compound, the “S. Flatsedge plant response rating” value (smallflower flatsedge; [1]) was 0, the “S. Flatsedge plant response rating” value (smallflower flatsedge; [2]) was 0 and the “S. Flatsedge plant response rating” value (smallflower flatsedge; [3]) was 0. The “S. Flatsedge plant response rating” value (smallflower flatsedge; [4]) was 0, the “Barnyardgrass plant response rating” value (bamyardgrass; [1]) was 0 and the “Barnyardgrass plant response rating” value (bamyardgrass; [2]) was 0. For the same compound, the “Barnyardgrass plant response rating” value (bamyardgrass; [3]) was 0, the “Barnyardgrass plant response rating” value (bamyardgrass; [4]) was 0 and the “Sugarbeets plant response rating” value (sugar beet; [5]) was 0. The “Sugarbeets plant response rating” value (sugar beet; [6]) was 0, the “Plant response rating, Sugarbeets” value (sugar beet; [7]) was 0 and the “Sugarbeets plant response rating” value (sugar beet; [8]) was 0. The “Sugarbeets plant response rating” value (sugar beet; [9]) was 0, the “Sugarbeets plant response rating” value (sugar beet; [10]) was 0 and the “Plant response rating (0 to 10; 0 is no effect, 10 is complete control), Sugarbeets” value (sugar beet; Rate 250 g/ha, Postemergence) was 0. For the same compound, the “Sugarbeets plant response rating” value (sugar beet; [11]) was 0, the “Corn plant response rating” value (corn; [5]) was 0 and the “Corn plant response rating” value (corn; [6]) was 0. The “Plant response rating, Corn” value (corn; [7]) was 0, the “Corn plant response rating” value (corn; [8]) was 0 and the “Corn plant response rating” value (corn; [9]) was 0. The “Corn plant response rating” value (corn; [10]) was 0, the “Plant response rating (0 to 10; 0 is no effect, 10 is complete control), Corn” value (corn; Rate 250 g/ha, Postemergence) was 0 and the “Corn plant response rating” value (corn; [11]) was 0. The “Soybean plant response rating” value (soybean; [5]) was 0, the “Soybean plant response rating” value (soybean; [6]) was 0 and the “Plant response rating, Soybean” value (soybean; [7]) was 0. For the same compound, the “Soybean plant response rating” value (soybean; [8]) was 2, the “Soybean plant response rating” value (soybean; [9]) was 3 and the “Soybean plant response rating” value (soybean; [10]) was 0. For the same compound, the “Plant response rating (0 to 10; 0 is no effect, 10 is complete control), Soybean” value (soybean; Rate 250 g/ha, Postemergence) was 3, the “Soybean plant response rating” value (soybean; [11]) was 2 and the “Bedstraw plant response rating” value (bedstraw; [5]) was 0. For the same compound, the “Bedstraw plant response rating” value (bedstraw; [6]) was 0, the “Plant response rating, Bedstraw” value (bedstraw; [7]) was 0 and the “Bedstraw plant response rating” value (bedstraw; [8]) was 3. The “Bedstraw plant response rating” value (bedstraw; [9]) was 3, the “Bedstraw plant response rating” value (bedstraw; [10]) was 0 and the “Plant response rating (0 to 10; 0 is no effect, 10 is complete control), Bedstraw” value (bedstraw; Rate 250 g/ha, Postemergence) was 4. The “Bedstraw plant response rating” value (bedstraw; [11]) was 5, the “B. signalgrass plant response rating” value (surinam grass; [5]) was 0 and the “B. signalgrass plant response rating” value (surinam grass; Preemergence, Rate 250 g/ha, scale 0 to 10, 0 is no effect, 10 is complete control) was 0. The “Plant response rating, B. signalgrass” value (surinam grass; [7]) was 0, the “B. signalgrass plant response rating” value (surinam grass; [8]) was 0 and the “B. signalgrass plant response rating” value (surinam grass; Rate 125 g/ha, Postemergence, scale 0 (no effect) to 10 (complete control)) was 0. For the same compound, the “B. signalgrass plant response rating” value (surinam grass; [10]) was 0, the “Plant response rating (0 to 10; 0 is no effect, 10 is complete control), B. signalgrass” value (surinam grass; Rate 250 g/ha, Postemergence) was 0 and the “B. signalgrass plant response rating” value (surinam grass; [11]) was 1.
